Read-outs that look alike come from different tables or passages of the source. Values belong to the compound of their own block, whether it stands above or below them.
Key:
[1] = CaCo-2 permeability (bi-directional); settings: human
Experimental: (§1) Caco-2 cells obtained from the ATCC were used between passage numbers 40—60. Cells were seeded onto Millipore Multiscreen Transwell plates at 1 × 10^5 cells/cm^2. The cells were cultured in DMEM and media was changed every two or three days. On day 20, the permeability study was performed. […] Cells were then incubated with HBSS at the desired pH in both apical and basolateral compartments for 40 min to stabilize physiological parameters.
(§2) The fluorescent integrity marker lucifer yellow was also included in the dosing solution. Analytical standards were prepared from test compound DMSO dilutions and transferred to buffer, maintaining a 1% v/v DMSO concentration.
(§3) For assessment of A-B permeability, HBSS was removed from the apical compartment and replaced with test compound dosing solution. The apical compartment insert was then placed into a companion plate containing fresh buffer (containing 1% v/v DMSO). For assessment of B-A permeability, HBSS was removed from the companion plate and replaced with test compound dosing solution. Fresh buffer (containing 1% v/v DMSO) was added to the apical compartment insert, which was then placed into the companion plate.
(§4) Compound permeability was assessed in duplicate. Compounds of known permeability characteristics were run as controls on each assay plate.
(§5) Test and control compounds were quantified by LC–MS/MS cassette analysis using a 7-point calibration with appropriate dilution of the samples. The starting concentration (C0) was determined from the dosing solution and the experimental recovery calculated from C0 and both apical and basolateral compartment concentrations. The integrity of the monolayer throughout the experiment was checked by monitoring lucifer yellow permeation using fluorimetric analysis.
(§6) The permeability coefficient (Papp) for each compound was calculated from the following equation: Papp=dQ/dtC0×A where dQ/dt was the rate of permeation of the drug across the cells, C0 was the donor compartment concentration at time zero and A was the area of the cell monolayer. C0 was obtained from analysis of the dosing solution.
(§7) Efflux ratio (ER) was calculated from mean A-B and B-A data. This was derived from: ER=Papp(B-A)Papp(A-B)

Caco-2 cells = test: CaCo-2 permeability (bi-directional); settings: Direction A2B
Experimental: as §1, §2, §3, §4, §5, §6, §7

DAOY cells = test: Spheroid invasion assay (SIA), bFGF-induced collagen I invasion; type: cell-based, human; settings: for EC50: DAOY cells, n = 3 technical replicas, read-out: EC50 for the inhibition of bFGF-induced collagen I invasion
Experimental: 1000—2500 cells/well in 100 μl were seeded in 96 well Corning® Spheroid microplate (CLS4520, Sigma-Aldrich) or in cell-repellent 96 well microplate (650,790, Greiner Bio-one). SIA and analysis was performed as described before. In brief: After spheroid formation (24 – 72 h after seeding), 70 µl medium was removed and replaced with the collagen mixture (2.5 mg/ml Pure Col Collagen I (Advanced Biomatrix)), DMEM 1x (from 10 × stock, Sigma, D2429) and 0.4% Sodium bicarbonate (Sigma, S8761)), resulting in a final collagen concentration of 1.75 mg/ml. Embedded spheroids were stimulated with bFGF (100 ng/ml if not otherwise stated), HGF (30 ng /ml) or EGF (20 ng/ml) and distance of invaded cells quantified 24 – 48 h after embedding. Compounds and BGJ398 were added in Dimethylsulfoxid (DMSO) and corresponding DMSO concentrations were used in control samples.

[2] = Cell viability (cytotoxicity, MTT) using HepG2; type: cell-based, human; settings: human, HepG2 cells, 72 h, summary sheet, read-out: MTT (AC50) Conc at which 50% of maximum efficacy is reached
Experimental: (§8) HepG2 human hepatocellular carcinoma cells were plated on 96-well tissue culture polystyrene plates for 24 h prior to dosing of the cells. The shortlisted hits were diluted in DMSO and serial dilutions are made 1% DMSO in growth media. Compounds at 8 concentrations in triplicate was then incubated for 72 h. Appropriate blanks and controls were run alongside the assay. One h prior to the end of the incubation period, the cells were loaded with MTT [yellow; 3-(4,5-dimethyl-2-thiazolyl)-2,5-diphenyl-2H-tetrazolium bromide], the plates were dried and re-solubilized using DMSO. The plates were then scanned at 570 nm using a plate reader.
(§9) The minimum effective concentration was determined from the lowest concentration whose mean value exceeds the significance level, provided either a clear dose–response relationship was observed, or at least two consecutive concentration points were above the significance level.

[3] = system: HepG2 human hepatocellular carcinoma cells; test: Cell viability (cytotoxicity, MTT) using HepG2; type: cell-based
Experimental: as §8, §9

[4] = Microsomal metabolic stability; type: in vitro ADME; settings: human, pooled liver microsomes
Experimental: Pooled liver microsomes were purchased from Xenotech (H0500) and were stored according to manufacturer’s instructions prior to use. […] A minus co-factor control incubation was included for each compound tested where 0.1 M phosphate buffer pH 7.4 was added instead of NADPH. Two control compounds were included with each species. All incubations were performed singularly for each shortlisted hit. Each compound was incubated for 0, 5, 15, 30 and 45 min. The minus co-factor was incubated for 45 min only. The reactions were stopped by transferring incubate into acetonitrile at the appropriate time points in a 1:3 ratio. The termination plates were centrifuged at 3000 rpm for 20 min at 4 °C to precipitate the protein. Following protein precipitation, the supernatant were combined in cassette of up to 4 compounds, internal standard for MS analysis was added and samples were analyzed using LC–MS/MS. From a plot of In peak area ratio (compound peak area/internal standard peak area) against time, the gradient of the lines were determined. Subsequently, half-life and intrinsic clearance were calculated using the following equations. Eliminationrateconstant(k)=(-gradient)Half-life(t1/2)(min)=0.693/kIntrinsicclearance(CLint)(μl/min/mgprotein)=Vx0.693/t1/2 where V = Incubation volume (µl) / Microsomal protein (mg)

[5] = Semi-thermodynamic solubility; type: physicochemical; settings: for solubility: Room Temp, Overnight, LC-MSMS
Experimental: In vitro ADME-T assays were performed by Cyprotex (Cyprotex Discovery, Cheshire, UK). […] The solution was agitated at ambient temperature overnight. The solutions were then centrifuged for 30 min at 3000 rpm at RT. The supernatant was removed and centrifuged for a further 30 min under the same conditions. An aliquot of the resulting supernatant was diluted in 50% methanol in water (containing an internal standard for MS analysis) prior to analysis by LC–MS/MS. […] These stocks were diluted in 50% methanol in water (containing an internal standard for MS analysis) prior to analysis by LC–MS/MS. The solubility of the shortlisted hits was calculated from a linear or quadratic fit of the standard curve.

ERK (pT202/Y204) = test: Immunoblotting, ERK phosphorylation; type: cell-based, human; settings: DAOY, SW780, M059K, SKOV3, AGS, DMS114 and RT-112 cells; 10 µM compound or 1 µM BGJ398
Experimental: (§10) Cells were serum starved o.n. and 10 µM compound or 1 µM (BGJ398) were added 3 h before stimulation with 100 ng/ml bFGF for 15 min. Cells were lysed in RIPA buffer containing protease inhibitor cocktail and lysates resolved by SDS-PAGE. Membranes were probed with primary antibodies against phospho-FRS2, FRS2, phospho-ERK1/2, ERK1/2, pAKT, AKT and tubulin. Integrated density of immuno-reactive bands was quantified using Adobe Photoshop CS3. Integrated densities of phospho bands relative to non-phospho bands of same protein were calculated and plotted as fold-change relative to untreated control conditions. Compounds and BGJ398 were added in DMSO and corresponding DMSO concentrations were used in control samples.

human cancer cell lines = test: CellTiter-Glo viability (2D culture or 3D spheroids), cell line panel; type: cell-based; settings: SW780, RT-112, M059K and SKOV3 cells; 2.7 to 20 µM; 48 h
Experimental: Cell viability was determined using CellTiter-Glo® 2D or 3D cell viability assays (#G9242, #G9682, Promega). 500 cells/25 µl were seeded in flat bottom (#781,091, Greiner bio-one) or U-low adhesion (#4516, Corning) 384-well plate, 24 h prior to treatment. Increasing concentrations of compounds are deposited on cells using a HP Digital Drug Dispenser with DMSO total volume normalization. After 48 h, the CellTiter-Glo® 2D or 3D reagent was added (volume/volume) following manufacturer’s instructions. Plates were incubated at RT (room temperature) under agitation for 30 min and luminescence representing the number of viable cells was quantified with a Cytation 3 imaging reader (BioTek®). Experiments were performed independently three times with three technical replicas each.

pFRS2Y436 = test: IHC of pFRS2Y436 in SKOV3 flank tumor samples; type: in vivo, mice; settings: SKOV3 model; end of treatment
Experimental: IHC of tumor sections was performed by Sophistolab (Muttenz, Switzerland) on a Lecia BondMax instrument using Refine HRP-Kits (Leica DS9800). All buffer-solutions were purchased from Lecia Microsystems Newcastle, Ltd and used according to the manufacturer’s guidelines. Paraffin-slides were de-waxed, pre-treated and incubated as follows: ER-solution 2 for 10 min at 95 °C, ER-solution 2 for 20 min at 100 °C and ER-solution 2 for 30 min at 100 °C. pFRS2; Rabbit anti-Phospho FRS2 (PhosphoY 436, Abcam Limited; ab193363), dilution 1:150; phospho-p44/42 MAPK (Erk1/2Thr202/Tyr204) Rabbit mAb (Cell Signaling Technology #4370), dilution 1:1600. The IHC images were captured digitally using a Nikon Epifluorescence Eclipse Ti2 equipped with a Nikon DS-Ri2 color and a Nikon DS-Qi2 monochrome camera.

[6] = system: FRS2 (Y436) phosphorylation; test: Immunoblotting, FRS2 phosphorylation; type: cell-based, human; settings: RT-112 cells
Experimental: as §10

DMS114 = test: Boyden chamber transwell migration assay; type: cell-based, human; settings: 24 h
Experimental: Transwells with 5 μm pore size (83.3932.500; Sarstedt) were coated with 50 µl of 0.06 μg/μl Pure Col Collagen I (5005; Advanced BioMatrix) dissolved in 100% EtOH for a final concentration of 10 μg/cm^2. 10,000 – 15,000 cells were resuspended in serum-free medium or serum-free medium containing the appropriate treatment and seeded in the upper chamber of a 24 well plate containing the coated transwell. The lower chamber was filled with either serum-free medium or serum-free medium with bFGF (25 ng/ml). Transwell migration was allowed for 24 h (DMS114) or 48 h (HCT116) at 37 °C, 5% CO2. Inserts were washed twice with PBS and the remaining non-invading cells on the upper surface of the membrane were removed using a cotton swab. The cells were fixed in 4% paraformaldehyde (28908; Thermo Fisher Scientific) in PBS for 5 min at RT. Fixed cells were washed twice with PBS and stained with DAPI for 15 min at RT. Inserts were washed three times in PBS before images of DAPI-stained nuclei were acquired using a widefield Nikon Ti2 microscope at 40 × magnification. Nuclei were counted on the membrane areas using ImageJ software and plotted on Prism 9 software (GraphPad).

- Papp B→A at 120 min, 10 μM ([1]; Caco-2, Mean Papp B-A, Caco-2, summary sheet): 7.53 ×10⁻⁶ cm/s
- recovery at 120 min, 10 µM ([1]; Caco-2, pH 7.4, Mean % Recovery A2B, HBSS/HBSS, pH 7.4/7.4): 51.5%
- recovery at 120 min, 10 µM ([1]; Caco-2, pH 7.4, Mean % Recovery B2A, HBSS/HBSS, pH 7.4/7.4): 14.4%
- Papp B→A at 120 min, 10 μM ([1]; Caco-2, pH 7.4, Mean Papp B2A, HBSS/HBSS, pH 7.4/7.4): 7.53 ×10⁻⁶ cm/s
- Papp B→A at 120 min, 10 μM ([1]; Caco-2, pH 7.4, Papp B2A Replicate 1, HBSS/HBSS, pH 7.4/7.4): 6.28 ×10⁻⁶ cm/s
- Papp B→A at 120 min, 10 μM ([1]; Caco-2, pH 7.4, Papp B2A Replicate 2, HBSS/HBSS, pH 7.4/7.4): 8.78 ×10⁻⁶ cm/s
- half-life at 1 µM ([4]; pH 7.4, liver microsomes, read-out: t1/2): 2.5 min
- microsomal CLint at 1 µM ([4]; pH 7.4, read-out: Metabolic stability - Intrinsic clearance (CI)): 555 µL/min/mg
- solubility ([5]; PBS, aqueous buffer, thermodynamic from solid, read-out: Mean Solubility): < 1 µM
- solubility ([5]; PBS, aqueous buffer, thermodynamic from solid, read-out: Solubility Replicate 1): < 1 µM
- solubility ([5]; PBS, aqueous buffer, thermodynamic from solid, read-out: Solubility Replicate 3): < 1 µM
- solubility ([5]; PBS, aqueous buffer, thermodynamic from solid, read-out: Solubility Replicate 4): < 1 µM
- solubility thermodynamic ([5]; aqueous buffer, thermodynamic from solid, PBS, overnight, summary sheet): < 1 µM
- Solubility (class in words) ([5]; summary sheet): Very slightly
SMILES: Oc1cc(Cl)cc2c1NC(c1ccc(Cl)cc1)C1CC=CC21 (centres unmarked) [Compound 12]
- Comments: A2B permeation (result in words) (Caco-2 cells): Test compound not detectable in receiver compartments A2B. High C0 value A2B and B2A. Recovery low B2A. Possible solubility or binding issues. Accuracy of result questionable.
- functional activity in SIA (result in words) (DAOY cells; DAOY, bFGF-induced, 1, 5 and 10 µM): reduced invasion comparable to the parent compound 7
- AC50 at 72 h [2]: 17500 nM
- MEC ([3]; 72h, 3 replicas, NR = No response (Summary sheet)): 9.85 µM
- MTT (MEC) Minimum effective concentration ([3]; 72 h, summary sheet): 9.85 µM

SMILES: CCN1CCN(c2ccc(Nc3cc(N(C)C(=O)Nc4c(Cl)c(OC)cc(OC)c4Cl)ncn3)cc2)CC1 [BGJ398, 3-(2,6-Dichloro-3,5-dimethoxy-phenyl)-1-{6-[4-(4-ethyl-piperazin-1-yl)-phenylamino]-pyrimidin-4-yl}-1-methyl-urea, reference compound]
- basal and bFGF-induced phosphorylation of ERK (result in words) (ERK (pT202/Y204)): inhibited basal and bFGF-induced phosphorylation
- EC50 (DAOY cells): 470 nM
- EC50 (DAOY cells; Homo sapiens, Daoy): 468 nM
- viability (result in words) (human cancer cell lines): reduced viability
- pFRS2 Y436 in tumor tissues by IHC (result in words) (pFRS2Y436): No clear difference in pFRS2 Y436
- basal and bFGF-induced phosphorylation of FRS2Y436 (result in words) [6]: reduced basal and bFGF-induced phosphorylation
- concentration at which significant reduction of transwell migration was observed (DMS114): 1 µM
